Results as given in ChEMBL document CHEMBL1201862, “PubChem BioAssay data set” (2004).
Activity calls are given as the source filed them.

Key:
[1] = molecular target: Serine/threonine-protein phosphatase PP1-alpha catalytic subunit (Homo sapiens, UniProt P62136); test: PP1 phosphatase inhibitors, dose response, biochemical, fluorescence (AID 2394)
[2] = molecular target: Tyrosyl-DNA phosphodiesterase 2 (Homo sapiens, UniProt O95551); test: human TDP2 enzyme inhibitors, dose response, biochemical, epi absorbance, IC50 (AID 743297)
Sequence of Tyrosyl-DNA phosphodiesterase 2 (O95551 whole entry): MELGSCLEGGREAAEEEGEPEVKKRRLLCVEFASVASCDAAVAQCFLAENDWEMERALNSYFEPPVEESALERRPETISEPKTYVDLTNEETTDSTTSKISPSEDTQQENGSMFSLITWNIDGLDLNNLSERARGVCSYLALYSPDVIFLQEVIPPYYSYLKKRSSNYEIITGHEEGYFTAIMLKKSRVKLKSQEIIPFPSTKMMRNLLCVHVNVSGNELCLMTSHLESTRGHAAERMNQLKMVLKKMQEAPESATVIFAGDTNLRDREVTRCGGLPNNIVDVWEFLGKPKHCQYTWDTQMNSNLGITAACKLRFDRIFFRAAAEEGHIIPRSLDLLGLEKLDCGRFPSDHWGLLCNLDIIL

[3] = A375 melanoma cell viability loss, dose response, counter-screen for MITF inhibitor project, CellTiter-Glo luminescence, dry powder, set 4 (AID 624364); format: functional, cell-based; conditions: A-375;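 further: A375 melanoma cells are MITF independent so this is a counter screen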
[4] = Artemis endonuclease inhibitor potency, dose response, biochemical, fluorescence intensity (AID 720701); format: functional;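 further: Artemis endonuclease enzyme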
[5] = molecular target: T1, Zinc finger protein mex-5 (Caenorhabditis elegans, UniProt Q9XUB2); test: MEX-5/TCR-2 RNA interaction inhibitors, dose response, biochemical, C. elegans, fluorescence polarization (AID 1960)
T1 sequence (Q9XUB2 whole entry): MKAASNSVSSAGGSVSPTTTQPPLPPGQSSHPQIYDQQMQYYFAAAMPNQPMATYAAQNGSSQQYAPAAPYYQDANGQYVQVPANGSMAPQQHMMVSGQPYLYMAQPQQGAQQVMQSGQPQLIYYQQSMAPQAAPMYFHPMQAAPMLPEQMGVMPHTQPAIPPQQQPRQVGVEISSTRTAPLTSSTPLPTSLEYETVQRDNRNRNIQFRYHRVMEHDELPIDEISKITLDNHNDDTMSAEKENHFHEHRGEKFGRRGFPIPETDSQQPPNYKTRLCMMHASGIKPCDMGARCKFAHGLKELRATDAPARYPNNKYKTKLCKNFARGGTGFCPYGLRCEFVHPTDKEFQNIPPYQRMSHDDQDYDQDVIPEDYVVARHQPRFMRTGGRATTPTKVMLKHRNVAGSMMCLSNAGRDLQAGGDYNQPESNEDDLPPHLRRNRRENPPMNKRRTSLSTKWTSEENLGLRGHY

Caspase-3 = molecular target: T2, Caspase-3 (Homo sapiens, UniProt P42574); format: functional;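 further: Dose-response selectivity test against caspase-3 for candidate inhibitors of sentrin-specific proteases (SENPs)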
T2 sequence (P42574 whole entry): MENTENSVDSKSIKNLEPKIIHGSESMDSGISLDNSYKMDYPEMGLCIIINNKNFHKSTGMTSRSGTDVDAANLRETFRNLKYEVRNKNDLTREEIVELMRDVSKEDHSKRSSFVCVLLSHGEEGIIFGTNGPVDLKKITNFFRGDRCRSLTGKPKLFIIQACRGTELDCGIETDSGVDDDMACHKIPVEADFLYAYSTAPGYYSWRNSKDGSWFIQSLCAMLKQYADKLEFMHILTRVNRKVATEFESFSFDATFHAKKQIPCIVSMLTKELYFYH

[6] = molecular target: T3, Endoribonuclease toxin MazF (Escherichia coli K-12, UniProt P0AE70); test: MazF toxin RNase activators, dose response, biochemical, fluorescence, single-stranded RNA substrate, uHTS hits (AID 588481); format: functional
T3 sequence (P0AE70 whole entry): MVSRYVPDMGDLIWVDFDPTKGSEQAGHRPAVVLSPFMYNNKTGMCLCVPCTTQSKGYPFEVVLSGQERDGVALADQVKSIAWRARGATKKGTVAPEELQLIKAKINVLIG

[7] = molecular target: T4, Sentrin-specific protease 7 (Homo sapiens, UniProt Q9BQF6); format: functional;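 further: Luminescence-based dose-response confirmation of ultra-high-throughput screening hits, measuring inhibition of SENP7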
T4 sequence (Q9BQF6 whole entry): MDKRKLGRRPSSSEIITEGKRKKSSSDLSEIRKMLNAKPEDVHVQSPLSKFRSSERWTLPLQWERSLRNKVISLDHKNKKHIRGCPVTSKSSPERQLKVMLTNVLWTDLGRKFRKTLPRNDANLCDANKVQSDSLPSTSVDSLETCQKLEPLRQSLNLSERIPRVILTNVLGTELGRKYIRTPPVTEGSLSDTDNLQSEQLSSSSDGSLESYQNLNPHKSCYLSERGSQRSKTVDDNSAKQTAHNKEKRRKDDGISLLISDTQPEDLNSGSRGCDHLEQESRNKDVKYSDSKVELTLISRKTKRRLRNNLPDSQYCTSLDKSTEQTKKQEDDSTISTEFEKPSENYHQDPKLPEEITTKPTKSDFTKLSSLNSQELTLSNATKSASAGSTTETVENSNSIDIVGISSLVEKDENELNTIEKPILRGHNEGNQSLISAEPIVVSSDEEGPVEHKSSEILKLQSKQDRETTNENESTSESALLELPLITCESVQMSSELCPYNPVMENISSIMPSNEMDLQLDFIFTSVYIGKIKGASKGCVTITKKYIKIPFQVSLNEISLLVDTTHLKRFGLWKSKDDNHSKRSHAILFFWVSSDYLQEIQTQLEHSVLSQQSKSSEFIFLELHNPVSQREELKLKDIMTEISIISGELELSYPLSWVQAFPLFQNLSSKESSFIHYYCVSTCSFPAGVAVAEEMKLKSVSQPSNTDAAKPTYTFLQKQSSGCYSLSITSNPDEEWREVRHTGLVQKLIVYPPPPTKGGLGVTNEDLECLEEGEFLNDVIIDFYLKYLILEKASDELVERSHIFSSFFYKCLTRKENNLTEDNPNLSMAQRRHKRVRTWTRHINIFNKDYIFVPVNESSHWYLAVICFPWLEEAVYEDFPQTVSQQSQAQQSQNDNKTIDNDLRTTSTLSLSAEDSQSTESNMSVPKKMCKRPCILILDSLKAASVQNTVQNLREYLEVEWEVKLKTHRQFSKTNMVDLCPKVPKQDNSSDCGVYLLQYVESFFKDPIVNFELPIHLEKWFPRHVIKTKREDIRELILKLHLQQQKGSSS

[8] = molecular target: T5, Sentrin-specific protease 8 (Homo sapiens, UniProt Q96LD8); format: functional;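 further: luminescence read-out of SENP8 inhibition, dose-response confirmation following an ultra-high-throughput screen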
T5 sequence (Q96LD8 whole entry): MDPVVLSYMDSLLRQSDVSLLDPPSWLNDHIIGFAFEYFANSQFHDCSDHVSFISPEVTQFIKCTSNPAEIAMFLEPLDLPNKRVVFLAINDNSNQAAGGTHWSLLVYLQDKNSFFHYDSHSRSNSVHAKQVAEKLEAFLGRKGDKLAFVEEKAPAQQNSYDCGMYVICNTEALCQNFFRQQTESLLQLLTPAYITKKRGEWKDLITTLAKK

[9] = molecular target: DNA (cytosine-5)-methyltransferase 1 (Homo sapiens, UniProt P26358); test: DNMT1 methyltransferase inhibitors, confirmation, biochemical, fluorescent molecular beacon (AID 602386); format: functional
Sequence of DNA (cytosine-5)-methyltransferase 1 (P26358 whole entry, the tested form may be a part): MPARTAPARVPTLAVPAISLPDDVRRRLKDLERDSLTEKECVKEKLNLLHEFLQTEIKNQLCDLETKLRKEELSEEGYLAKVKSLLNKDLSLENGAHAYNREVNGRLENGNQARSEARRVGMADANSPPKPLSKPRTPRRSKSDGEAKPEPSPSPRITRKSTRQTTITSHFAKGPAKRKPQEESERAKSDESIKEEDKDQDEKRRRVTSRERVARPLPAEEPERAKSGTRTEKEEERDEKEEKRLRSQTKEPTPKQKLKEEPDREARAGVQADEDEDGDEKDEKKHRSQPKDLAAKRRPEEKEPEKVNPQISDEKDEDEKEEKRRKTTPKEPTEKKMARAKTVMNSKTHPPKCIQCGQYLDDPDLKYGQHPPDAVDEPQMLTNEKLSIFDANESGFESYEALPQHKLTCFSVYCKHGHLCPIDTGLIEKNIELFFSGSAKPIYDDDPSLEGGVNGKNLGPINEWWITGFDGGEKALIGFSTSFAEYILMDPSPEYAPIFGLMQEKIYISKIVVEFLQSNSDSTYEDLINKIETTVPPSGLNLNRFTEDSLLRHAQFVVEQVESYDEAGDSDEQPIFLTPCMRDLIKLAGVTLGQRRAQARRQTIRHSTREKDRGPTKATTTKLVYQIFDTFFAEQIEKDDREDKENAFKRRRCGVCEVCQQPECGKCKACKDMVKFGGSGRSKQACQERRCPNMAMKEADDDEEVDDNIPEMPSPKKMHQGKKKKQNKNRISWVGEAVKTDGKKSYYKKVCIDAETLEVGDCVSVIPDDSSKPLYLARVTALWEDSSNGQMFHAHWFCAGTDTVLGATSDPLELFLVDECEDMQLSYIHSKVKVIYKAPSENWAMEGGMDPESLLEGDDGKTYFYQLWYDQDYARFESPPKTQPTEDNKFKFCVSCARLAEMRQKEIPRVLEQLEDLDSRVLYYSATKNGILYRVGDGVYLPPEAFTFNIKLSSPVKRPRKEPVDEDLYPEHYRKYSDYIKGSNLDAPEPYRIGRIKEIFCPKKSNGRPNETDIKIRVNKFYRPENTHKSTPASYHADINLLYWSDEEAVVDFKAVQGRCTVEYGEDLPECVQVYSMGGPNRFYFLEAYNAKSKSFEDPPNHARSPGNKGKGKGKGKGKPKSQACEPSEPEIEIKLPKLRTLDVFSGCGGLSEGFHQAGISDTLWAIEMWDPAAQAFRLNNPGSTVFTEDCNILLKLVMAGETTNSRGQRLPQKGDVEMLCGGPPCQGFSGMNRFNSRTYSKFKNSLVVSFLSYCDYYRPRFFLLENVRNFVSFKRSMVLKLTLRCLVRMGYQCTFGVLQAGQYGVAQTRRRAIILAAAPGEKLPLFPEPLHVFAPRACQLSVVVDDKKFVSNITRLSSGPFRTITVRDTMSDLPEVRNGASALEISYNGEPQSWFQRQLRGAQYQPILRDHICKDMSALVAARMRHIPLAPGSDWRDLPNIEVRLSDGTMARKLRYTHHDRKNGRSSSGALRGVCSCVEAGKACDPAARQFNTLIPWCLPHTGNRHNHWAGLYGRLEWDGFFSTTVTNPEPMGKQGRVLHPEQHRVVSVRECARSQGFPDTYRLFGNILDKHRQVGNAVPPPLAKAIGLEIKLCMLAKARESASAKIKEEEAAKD

[10] = molecular target: T6, RNA-binding protein pos-1 (Caenorhabditis elegans, UniProt G5EF15); test: inhibitors of POS-1/mex-3 RNA binding, dose response, biochemical, fluorescence polarization (AID 1964);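 further: purified POS-1 fused to maltose binding protein made in E. coli; potency of compounds blocking POS-1 binding to fluorescent RNA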
T6 sequence (G5EF15 whole entry): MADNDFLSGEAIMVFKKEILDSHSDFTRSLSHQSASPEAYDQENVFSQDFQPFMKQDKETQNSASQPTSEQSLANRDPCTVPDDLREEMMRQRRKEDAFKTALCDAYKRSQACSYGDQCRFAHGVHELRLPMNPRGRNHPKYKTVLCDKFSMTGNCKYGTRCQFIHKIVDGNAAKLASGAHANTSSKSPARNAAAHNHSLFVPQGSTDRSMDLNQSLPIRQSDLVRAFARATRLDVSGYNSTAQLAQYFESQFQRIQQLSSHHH

Sequence of Serine/threonine-protein phosphatase PP1-alpha catalytic subunit (P62136 whole entry): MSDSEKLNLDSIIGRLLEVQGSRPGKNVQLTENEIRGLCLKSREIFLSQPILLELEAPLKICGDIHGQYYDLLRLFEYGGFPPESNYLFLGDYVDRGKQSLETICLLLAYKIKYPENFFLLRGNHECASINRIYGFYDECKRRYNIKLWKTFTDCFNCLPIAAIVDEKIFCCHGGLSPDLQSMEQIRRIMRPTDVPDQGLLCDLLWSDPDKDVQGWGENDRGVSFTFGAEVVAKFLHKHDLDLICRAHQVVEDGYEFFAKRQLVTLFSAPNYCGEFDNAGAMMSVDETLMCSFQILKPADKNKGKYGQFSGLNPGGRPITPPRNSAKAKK

| Compound | IC50 [1] | IC50 [2] | AC50 [3] | IC50 [4] | EC50 [5] | IC50 (Caspase-3) | EC50 [6] | IC50 [7] | IC50 [8] | IC50 [9] | EC50 [10] |
| --- | --- | --- | --- | --- | --- | --- | --- | --- | --- | --- | --- |
| O=C1C(Nc2ccccc2)=C(N2CCCCC2)C(=O)c2ccccc21 | > 67 µM (not active) | > 128 µM (inactive) | 37.4 µM (active) | 18.9 µM (active) | – | – | – | – | – | – | – |
| Oc1[nH]c2ccccc2c1N=Nc1ccc(F)cc1 | – | – | – | – | > 300 µM (inconclusive) | 7.58 µM (active) | > 99 µM (inactive) | 1.51 µM (active) | 3.07 µM (active) | 19.3 µM (active) | > 300 µM (not active) |
